How the values were obtained:
[1] = biological target: T1, Mitogen-activated protein kinase kinase kinase 5 (Homo sapiens, UniProt Q99683); test: Inhibition of ASK1 (unknown origin) using biotin-MBP as substrate after 20 mins by TR-FRET assay
T1 sequence (Q99683 whole entry): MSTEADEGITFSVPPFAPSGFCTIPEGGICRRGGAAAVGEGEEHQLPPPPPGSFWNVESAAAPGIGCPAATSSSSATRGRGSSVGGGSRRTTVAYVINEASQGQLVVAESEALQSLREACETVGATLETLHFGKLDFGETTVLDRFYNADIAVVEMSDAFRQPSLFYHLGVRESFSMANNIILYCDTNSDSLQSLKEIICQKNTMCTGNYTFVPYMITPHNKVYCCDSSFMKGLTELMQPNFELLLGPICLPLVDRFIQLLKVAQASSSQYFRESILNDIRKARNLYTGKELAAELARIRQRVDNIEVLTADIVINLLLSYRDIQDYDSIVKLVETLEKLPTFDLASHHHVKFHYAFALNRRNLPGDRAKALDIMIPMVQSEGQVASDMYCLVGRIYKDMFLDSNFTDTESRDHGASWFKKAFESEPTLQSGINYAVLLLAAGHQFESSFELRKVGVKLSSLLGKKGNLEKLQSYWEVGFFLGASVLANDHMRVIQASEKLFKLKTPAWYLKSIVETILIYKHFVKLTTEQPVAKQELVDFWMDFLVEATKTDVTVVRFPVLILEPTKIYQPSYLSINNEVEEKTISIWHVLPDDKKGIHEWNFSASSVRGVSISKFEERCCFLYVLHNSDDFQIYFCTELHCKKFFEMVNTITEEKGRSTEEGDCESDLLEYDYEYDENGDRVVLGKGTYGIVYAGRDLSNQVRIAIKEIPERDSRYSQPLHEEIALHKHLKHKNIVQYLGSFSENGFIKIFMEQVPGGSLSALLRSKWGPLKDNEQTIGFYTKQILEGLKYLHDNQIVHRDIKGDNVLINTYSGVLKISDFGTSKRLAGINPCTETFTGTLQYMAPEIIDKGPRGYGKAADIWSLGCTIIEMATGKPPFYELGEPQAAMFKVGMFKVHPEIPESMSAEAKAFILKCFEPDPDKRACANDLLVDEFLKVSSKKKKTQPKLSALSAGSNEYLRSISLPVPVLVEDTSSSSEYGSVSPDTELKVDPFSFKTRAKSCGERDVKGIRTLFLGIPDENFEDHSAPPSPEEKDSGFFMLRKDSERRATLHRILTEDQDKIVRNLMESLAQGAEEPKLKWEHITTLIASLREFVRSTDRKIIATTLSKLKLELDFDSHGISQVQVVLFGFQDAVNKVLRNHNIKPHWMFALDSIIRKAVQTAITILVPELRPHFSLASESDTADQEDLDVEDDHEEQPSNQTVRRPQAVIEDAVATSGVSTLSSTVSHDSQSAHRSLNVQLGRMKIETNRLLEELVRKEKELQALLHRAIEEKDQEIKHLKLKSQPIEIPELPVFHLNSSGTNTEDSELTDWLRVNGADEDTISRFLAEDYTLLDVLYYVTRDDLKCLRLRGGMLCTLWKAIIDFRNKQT

[2] = Intrinsic clearance in human liver microsomes; format: ADME, microsome; details: read-out: CLH
[3] = biological target: Epidermal growth factor receptor (Homo sapiens, UniProt P00533); test: Inhibition of recombinant human GST-tagged EGFR cytoplasmic domain (668 to 1210 residues) expressed in baculovirus expression system
[4] = biological target: Macrophage-stimulating protein receptor (Homo sapiens, UniProt Q04912); test: Inhibition of recombinant human GST-tagged RON cytoplasmic domain expressed in baculovirus expression system
[5] = biological target: Rho-associated protein kinase 1 (Homo sapiens, UniProt Q13464); test: Inhibition of recombinant human GST-tagged ROCK1 catalytic domain expressed in baculovirus expression system
MAP kinase p38 = MAP kinase p38 (Homo sapiens, UniProt O15264+Q15759+Q16539+P53778); test: Inhibition of MAPK p38 (unknown origin)
CYP3A4 = CYP3A4 (Homo sapiens, UniProt P08684); test: Inhibition of CYP3A4 (unknown origin) at 10 uM relative to control; format: ADME
CYP1A2 = biological target: T2, CYP1A2 (Homo sapiens, UniProt P05177); test: Inhibition of CYP1A2 (unknown origin) at 10 uM relative to control; format: ADME
T2 sequence (P05177 whole entry): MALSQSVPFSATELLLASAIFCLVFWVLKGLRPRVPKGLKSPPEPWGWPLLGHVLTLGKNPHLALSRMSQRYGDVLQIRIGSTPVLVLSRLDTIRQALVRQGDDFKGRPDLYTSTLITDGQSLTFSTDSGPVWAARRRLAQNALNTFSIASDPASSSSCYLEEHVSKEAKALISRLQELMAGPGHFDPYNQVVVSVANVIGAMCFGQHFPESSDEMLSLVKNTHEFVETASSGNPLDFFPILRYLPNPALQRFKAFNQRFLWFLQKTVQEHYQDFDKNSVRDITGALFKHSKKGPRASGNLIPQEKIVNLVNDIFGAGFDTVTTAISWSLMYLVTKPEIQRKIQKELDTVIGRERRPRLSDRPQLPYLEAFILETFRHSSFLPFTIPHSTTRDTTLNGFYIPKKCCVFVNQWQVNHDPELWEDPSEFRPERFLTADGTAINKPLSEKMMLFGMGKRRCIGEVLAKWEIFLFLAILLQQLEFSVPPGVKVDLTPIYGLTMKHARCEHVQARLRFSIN

[6] = biological target: 5'-AMP-activated protein kinase catalytic subunit alpha-1 (Homo sapiens, UniProt Q13131); test: Inhibition of PRKAA1 (unknown origin)
[7] = biological target: Glycogen synthase kinase-3 beta (Homo sapiens, UniProt P49841); test: Inhibition of recombinant full length human His-tagged GSK3B expressed in baculovirus expression system
[8] = biological target: Receptor tyrosine-protein kinase erbB-4 (Homo sapiens, UniProt Q15303); test: Inhibition of recombinant human N-terminal GST-tagged ERBB4 cytoplasmic domain (708 to 993 residues) expressed in baculovirus expression system
[9] = biological target: Proto-oncogene tyrosine-protein kinase receptor Ret (Homo sapiens, UniProt P07949); test: Inhibition of recombinant human GST-tagged RET cytoplasmic domain expressed in baculovirus expression system

Chain of Receptor tyrosine-protein kinase erbB-4 (Q15303 whole entry, the tested form may be a part): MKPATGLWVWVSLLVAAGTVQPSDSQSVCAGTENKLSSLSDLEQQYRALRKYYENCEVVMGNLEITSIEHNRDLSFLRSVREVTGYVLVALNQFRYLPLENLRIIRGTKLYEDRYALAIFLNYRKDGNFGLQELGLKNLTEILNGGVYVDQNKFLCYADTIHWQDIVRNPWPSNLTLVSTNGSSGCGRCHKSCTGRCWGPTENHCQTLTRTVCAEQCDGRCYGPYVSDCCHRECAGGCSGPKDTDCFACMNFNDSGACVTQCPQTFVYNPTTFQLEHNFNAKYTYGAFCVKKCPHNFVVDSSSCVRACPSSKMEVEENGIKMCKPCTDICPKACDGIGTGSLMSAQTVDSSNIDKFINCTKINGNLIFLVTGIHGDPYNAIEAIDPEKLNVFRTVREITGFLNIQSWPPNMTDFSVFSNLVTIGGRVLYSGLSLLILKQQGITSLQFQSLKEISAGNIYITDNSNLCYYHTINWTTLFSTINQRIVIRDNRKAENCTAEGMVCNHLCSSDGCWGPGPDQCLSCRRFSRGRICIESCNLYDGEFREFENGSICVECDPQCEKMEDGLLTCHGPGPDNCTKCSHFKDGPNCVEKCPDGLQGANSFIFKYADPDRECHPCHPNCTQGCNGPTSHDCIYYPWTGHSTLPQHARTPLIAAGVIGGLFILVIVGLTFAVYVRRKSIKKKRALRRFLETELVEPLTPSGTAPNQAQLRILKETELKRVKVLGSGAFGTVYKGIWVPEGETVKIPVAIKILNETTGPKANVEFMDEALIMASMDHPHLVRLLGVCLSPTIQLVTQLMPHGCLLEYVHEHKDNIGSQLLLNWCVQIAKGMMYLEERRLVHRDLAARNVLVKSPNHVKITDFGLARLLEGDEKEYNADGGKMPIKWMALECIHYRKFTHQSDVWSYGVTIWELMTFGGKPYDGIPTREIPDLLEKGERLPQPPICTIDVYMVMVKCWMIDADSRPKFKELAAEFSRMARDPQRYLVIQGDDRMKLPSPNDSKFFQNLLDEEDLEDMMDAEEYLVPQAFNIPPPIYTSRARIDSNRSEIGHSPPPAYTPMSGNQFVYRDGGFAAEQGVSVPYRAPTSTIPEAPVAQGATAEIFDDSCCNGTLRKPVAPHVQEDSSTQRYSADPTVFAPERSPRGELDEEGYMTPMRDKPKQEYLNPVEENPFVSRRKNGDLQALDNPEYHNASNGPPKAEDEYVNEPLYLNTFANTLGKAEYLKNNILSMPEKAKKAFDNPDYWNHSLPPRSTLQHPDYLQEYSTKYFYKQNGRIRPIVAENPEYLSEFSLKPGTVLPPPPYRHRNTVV
Chain of Epidermal growth factor receptor (P00533 whole entry, the tested form may be a part): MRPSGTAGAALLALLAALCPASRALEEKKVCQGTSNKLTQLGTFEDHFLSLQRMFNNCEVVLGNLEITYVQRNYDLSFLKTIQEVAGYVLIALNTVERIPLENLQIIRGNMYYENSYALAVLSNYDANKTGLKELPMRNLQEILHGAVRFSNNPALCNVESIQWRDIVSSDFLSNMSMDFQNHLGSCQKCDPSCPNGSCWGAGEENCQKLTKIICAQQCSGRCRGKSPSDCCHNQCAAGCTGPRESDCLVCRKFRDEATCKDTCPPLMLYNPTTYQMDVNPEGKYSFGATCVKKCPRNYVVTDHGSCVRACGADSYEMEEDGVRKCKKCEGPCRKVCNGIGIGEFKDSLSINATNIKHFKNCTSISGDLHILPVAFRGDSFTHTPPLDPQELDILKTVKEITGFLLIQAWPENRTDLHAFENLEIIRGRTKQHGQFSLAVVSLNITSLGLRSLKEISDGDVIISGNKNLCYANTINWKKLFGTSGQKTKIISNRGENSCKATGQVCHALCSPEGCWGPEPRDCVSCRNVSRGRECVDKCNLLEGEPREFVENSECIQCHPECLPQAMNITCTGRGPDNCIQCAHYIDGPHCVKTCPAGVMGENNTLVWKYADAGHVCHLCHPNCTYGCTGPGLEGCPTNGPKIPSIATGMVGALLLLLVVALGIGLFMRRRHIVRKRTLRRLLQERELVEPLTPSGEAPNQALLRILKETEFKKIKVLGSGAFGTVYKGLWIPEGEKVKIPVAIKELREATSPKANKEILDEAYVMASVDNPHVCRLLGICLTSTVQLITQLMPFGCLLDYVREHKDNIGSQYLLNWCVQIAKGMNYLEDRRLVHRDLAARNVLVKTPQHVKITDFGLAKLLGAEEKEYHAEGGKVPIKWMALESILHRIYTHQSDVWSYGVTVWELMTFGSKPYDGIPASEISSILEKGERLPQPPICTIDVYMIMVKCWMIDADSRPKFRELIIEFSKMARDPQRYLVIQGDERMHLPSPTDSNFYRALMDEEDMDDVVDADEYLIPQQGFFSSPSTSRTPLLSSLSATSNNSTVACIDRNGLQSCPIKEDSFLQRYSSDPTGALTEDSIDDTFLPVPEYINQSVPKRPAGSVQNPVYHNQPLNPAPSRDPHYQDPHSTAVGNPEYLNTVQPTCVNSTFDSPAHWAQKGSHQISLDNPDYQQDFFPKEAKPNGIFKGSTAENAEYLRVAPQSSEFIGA
Chain of 5'-AMP-activated protein kinase catalytic subunit alpha-1 (Q13131 whole entry): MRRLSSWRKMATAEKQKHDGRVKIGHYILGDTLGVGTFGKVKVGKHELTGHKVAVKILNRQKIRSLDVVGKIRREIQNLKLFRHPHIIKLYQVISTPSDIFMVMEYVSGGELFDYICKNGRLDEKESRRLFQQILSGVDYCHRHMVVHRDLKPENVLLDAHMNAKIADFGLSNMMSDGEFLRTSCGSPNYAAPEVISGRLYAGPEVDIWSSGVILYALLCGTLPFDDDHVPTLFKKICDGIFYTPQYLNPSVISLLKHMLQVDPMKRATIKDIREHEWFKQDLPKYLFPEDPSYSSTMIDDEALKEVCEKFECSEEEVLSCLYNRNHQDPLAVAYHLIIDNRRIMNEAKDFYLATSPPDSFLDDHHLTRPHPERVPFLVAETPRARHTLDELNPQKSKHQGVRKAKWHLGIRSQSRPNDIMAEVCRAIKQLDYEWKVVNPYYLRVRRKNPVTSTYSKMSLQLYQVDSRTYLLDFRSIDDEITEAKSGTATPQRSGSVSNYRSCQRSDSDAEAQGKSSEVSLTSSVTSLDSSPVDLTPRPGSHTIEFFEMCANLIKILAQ
Chain of CYP3A4 (P08684 whole entry): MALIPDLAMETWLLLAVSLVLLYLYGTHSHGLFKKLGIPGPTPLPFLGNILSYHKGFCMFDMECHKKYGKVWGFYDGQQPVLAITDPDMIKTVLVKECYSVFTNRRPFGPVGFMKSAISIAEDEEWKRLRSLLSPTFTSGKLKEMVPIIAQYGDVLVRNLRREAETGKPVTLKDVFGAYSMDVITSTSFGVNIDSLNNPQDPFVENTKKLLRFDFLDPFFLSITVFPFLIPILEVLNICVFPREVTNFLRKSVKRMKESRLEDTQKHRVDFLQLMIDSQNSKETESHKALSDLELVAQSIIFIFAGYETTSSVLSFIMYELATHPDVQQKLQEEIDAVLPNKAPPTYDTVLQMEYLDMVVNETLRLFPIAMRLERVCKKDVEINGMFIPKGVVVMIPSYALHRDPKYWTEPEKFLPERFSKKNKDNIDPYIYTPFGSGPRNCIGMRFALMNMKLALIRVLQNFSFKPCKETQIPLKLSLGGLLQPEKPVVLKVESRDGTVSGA
Chain of Macrophage-stimulating protein receptor (Q04912 25-304 limits assumed): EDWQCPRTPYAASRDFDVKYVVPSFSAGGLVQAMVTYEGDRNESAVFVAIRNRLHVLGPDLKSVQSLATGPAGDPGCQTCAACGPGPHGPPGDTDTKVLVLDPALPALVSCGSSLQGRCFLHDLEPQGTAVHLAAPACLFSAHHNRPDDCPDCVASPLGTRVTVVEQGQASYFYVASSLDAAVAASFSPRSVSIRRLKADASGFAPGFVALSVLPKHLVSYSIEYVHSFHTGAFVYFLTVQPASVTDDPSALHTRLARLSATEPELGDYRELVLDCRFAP
Chain of Macrophage-stimulating protein receptor (Q04912 310-1400 limits assumed): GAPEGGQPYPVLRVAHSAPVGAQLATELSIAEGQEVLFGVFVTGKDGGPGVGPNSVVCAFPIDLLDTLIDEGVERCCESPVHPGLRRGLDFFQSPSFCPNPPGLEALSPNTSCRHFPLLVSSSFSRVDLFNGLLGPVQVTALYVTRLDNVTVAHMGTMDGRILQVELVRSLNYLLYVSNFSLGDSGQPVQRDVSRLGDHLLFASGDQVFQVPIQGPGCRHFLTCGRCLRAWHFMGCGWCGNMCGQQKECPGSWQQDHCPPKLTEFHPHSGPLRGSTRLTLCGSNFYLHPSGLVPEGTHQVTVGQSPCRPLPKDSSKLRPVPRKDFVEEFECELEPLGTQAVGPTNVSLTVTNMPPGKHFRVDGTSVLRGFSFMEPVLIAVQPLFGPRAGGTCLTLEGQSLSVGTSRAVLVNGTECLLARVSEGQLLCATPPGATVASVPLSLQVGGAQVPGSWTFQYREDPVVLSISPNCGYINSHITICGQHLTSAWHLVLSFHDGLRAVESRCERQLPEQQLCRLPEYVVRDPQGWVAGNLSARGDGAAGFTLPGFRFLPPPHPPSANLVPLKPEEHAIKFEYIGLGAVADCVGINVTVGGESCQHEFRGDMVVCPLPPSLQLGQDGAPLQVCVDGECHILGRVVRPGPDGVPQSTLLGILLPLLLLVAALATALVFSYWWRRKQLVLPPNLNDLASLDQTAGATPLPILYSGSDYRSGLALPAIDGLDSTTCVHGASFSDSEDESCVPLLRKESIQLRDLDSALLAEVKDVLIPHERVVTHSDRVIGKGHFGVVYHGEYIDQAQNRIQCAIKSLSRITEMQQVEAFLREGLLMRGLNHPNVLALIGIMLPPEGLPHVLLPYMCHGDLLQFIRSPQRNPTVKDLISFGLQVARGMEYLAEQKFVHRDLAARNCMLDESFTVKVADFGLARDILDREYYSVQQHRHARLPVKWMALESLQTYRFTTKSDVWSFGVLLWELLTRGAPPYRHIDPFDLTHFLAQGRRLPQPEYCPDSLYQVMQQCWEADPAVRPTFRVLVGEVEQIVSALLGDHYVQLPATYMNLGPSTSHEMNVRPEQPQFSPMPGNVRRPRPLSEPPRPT

**Q.** What does the source list for `COCCn1cc(NC(=O)c2csc(-c3nncn3C(C)C)n2)cn1`?
**A.** IC50 [1]: 60 nM; CLint scaled [2]: 8.8 mL/min/kg; IC50 [3]: > 20000 nM; IC50 [4]: > 20000 nM; IC50 [5]: 5370 nM; pIC50 (MAP kinase p38): < 4.7; inhibition at 10 µM (CYP3A4): 30%; inhibition at 10 µM (CYP1A2): 8%; IC50 [6]: 794 nM; IC50 [7]: 457 nM; IC50 [8]: > 20000 nM; IC50 [9]: 617 nM

Source: ChEMBL document CHEMBL4007491, “Structure-based drug design of novel ASK1 inhibitors using an integrated lead optimization strategy” (Bioorg Med Chem Lett, 2017)
